Reference: ChEMBL document CHEMBL4138123, “Design, synthesis and biological evaluation of novel pyrazolochalcones as potential modulators of PI3K/Akt/mTOR pathway and inducers of apoptosis in breast cancer cells” (Eur J Med Chem, 2017)

Experiments:
Format in all cases: functional
[1] = tested on: SK-OV-3; experiment: Cytotoxicity against human SKOV3 cells assessed as cell growth at 10 uM after 48 hrs by sulforhodamine B assay relative to control; settings: SK-OV-3, 48 h, read-out: Activity
[2] = tested on: PC-3; experiment: Cytotoxicity against human PC3 cells assessed as cell growth at 0.01 uM after 48 hrs by sulforhodamine B assay relative to control; settings: PC-3, 48 h, read-out: Activity
[3] = tested on: OVCAR-4; experiment: Cytotoxicity against human OVCAR4 cells assessed as cell growth at 0.1 uM after 48 hrs by sulforhodamine B assay relative to control; settings: OVCAR-4, 48 h, read-out: Activity
[4] = tested on: HL-60(TB); experiment: Cytotoxicity against human HL-60(TB) cells assessed as cell growth at 0.01 uM after 48 hrs by sulforhodamine B assay relative to control; settings: HL-60, 48 h, read-out: Activity
[5] = tested on: OVCAR-5; experiment: Cytotoxicity against human OVCAR5 cells assessed as cell growth at 1 uM after 48 hrs by sulforhodamine B assay relative to control; settings: OVCAR-5, 48 h, read-out: Activity
[6] = tested on: U-251; experiment: Cytotoxicity against human U251 cells assessed as cell growth at 0.1 uM after 48 hrs by sulforhodamine B assay relative to control; settings: U-251, 48 h, read-out: Activity
[7] = tested on: BT-549; experiment: Cytotoxicity against human BT549 cells assessed as cell growth at 0.1 uM after 48 hrs by sulforhodamine B assay relative to control; settings: BT-549, 48 h, read-out: Activity
[8] = tested on: NCI-H322M; experiment: Cytotoxicity against human NCI-H322M cells assessed as growth inhibition after 48 hrs by sulforhodamine B assay; settings: for CC50: read-out: LC50 (the source's name)
[9] = tested on: Hs-578T; experiment: Cytotoxicity against human Hs 578T cells assessed as cell growth at 10 uM after 48 hrs by sulforhodamine B assay relative to control; settings: read-out: Activity
[10] = tested on: CCRF-CEM; experiment: Cytotoxicity against human CCRF-CEM cells assessed as cell growth at 100 uM after 48 hrs by sulforhodamine B assay relative to control; settings: read-out: Activity
[11] = tested on: MDA-MB-435; experiment: Cytotoxicity against human MDA-MB-435 cells assessed as cell growth at 100 uM after 48 hrs by sulforhodamine B assay relative to control; settings: MDA-MB-435, 48 h, read-out: Activity
[12] = tested on: IGROV-1; experiment: Cytotoxicity against human IGROV1 cells assessed as cell growth at 0.1 uM after 48 hrs by sulforhodamine B assay relative to control; settings: IGROV-1, 48 h, read-out: Activity
[13] = tested on: UACC-257; experiment: Cytotoxicity against human UACC257 cells assessed as growth inhibition after 48 hrs by sulforhodamine B assay; settings: UACC-257, 48 h
[14] = tested on: RXF 393; experiment: Cytotoxicity against human RXF393 cells assessed as growth inhibition after 48 hrs by sulforhodamine B assay; settings: RXF 393, 48 h
[15] = tested on: MDA-MB-231; experiment: Cytotoxicity against human MDA-MB-231 cells assessed as cell growth at 0.01 uM after 48 hrs by sulforhodamine B assay relative to control; settings: MDA-MB-231, 48 h, read-out: Activity
[16] = tested on: SK-MEL-5; experiment: Cytotoxicity against human SK-MEL-5 cells assessed as cell growth at 0.1 uM after 48 hrs by sulforhodamine B assay relative to control; settings: SK-MEL-5, 48 h, read-out: Activity
[17] = tested on: BT-549; experiment: Cytotoxicity against human BT549 cells assessed as cell growth at 100 uM after 48 hrs by sulforhodamine B assay relative to control; settings: BT-549, 48 h, read-out: Activity
[18] = tested on: NCI-H460; experiment: Cytotoxicity against human NCI-H460 cells assessed as cell growth at 10 uM after 48 hrs by sulforhodamine B assay relative to control; settings: NCI-H460, 48 h, read-out: Activity
[19] = tested on: NCI/ADR-RES; experiment: Cytotoxicity against human NCI/ADR-RES cells assessed as cell growth at 10 uM after 48 hrs by sulforhodamine B assay relative to control; settings: read-out: Activity
[20] = tested on: SW-620; experiment: Cytotoxicity against human SW620 cells assessed as growth inhibition after 48 hrs by sulforhodamine B assay; settings: SW-620, 48 h
[21] = tested on: HCT-15; experiment: Cytotoxicity against human HCT15 cells assessed as cell growth at 10 uM after 48 hrs by sulforhodamine B assay relative to control; settings: HCT-15, 48 h, read-out: Activity
[22] = tested on: HCT-116; experiment: Cytotoxicity against human HCT116 cells assessed as cell growth at 0.1 uM after 48 hrs by sulforhodamine B assay relative to control; settings: HCT-116, 48 h, read-out: Activity
[23] = tested on: HOP-62; experiment: Cytotoxicity against human HOP62 cells assessed as cell growth at 0.1 uM after 48 hrs by sulforhodamine B assay relative to control; settings: HOP-62, 48 h, read-out: Activity
[24] = tested on: RPMI-8226; experiment: Cytotoxicity against human RPMI8226 cells assessed as cell growth at 0.1 uM after 48 hrs by sulforhodamine B assay relative to control; settings: RPMI-8226, 48 h, read-out: Activity
[25] = tested on: SF-268; experiment: Cytotoxicity against human SF268 cells assessed as cell growth at 1 uM after 48 hrs by sulforhodamine B assay relative to control; settings: SF-268, 48 h, read-out: Activity
[26] = tested on: U-251; experiment: Cytotoxicity against human U251 cells assessed as cell growth at 1 uM after 48 hrs by sulforhodamine B assay relative to control; settings: U-251, 48 h, read-out: Activity
[27] = tested on: MOLT-4; experiment: Cytotoxicity against human MOLT4 cells assessed as growth inhibition after 48 hrs by sulforhodamine B assay; settings: MOLT-4, 48 h; for CC50: read-out: LC50 (the source's name)
[28] = tested on: TK-10; experiment: Cytotoxicity against human TK10 cells assessed as cell growth at 1 uM after 48 hrs by sulforhodamine B assay relative to control; settings: TK-10, 48 h, read-out: Activity
[29] = tested on: IGROV-1; experiment: Cytotoxicity against human IGROV1 cells assessed as cell growth at 100 uM after 48 hrs by sulforhodamine B assay relative to control; settings: IGROV-1, 48 h, read-out: Activity
[30] = tested on: MOLT-4; experiment: Cytotoxicity against human MOLT4 cells assessed as cell growth at 10 uM after 48 hrs by sulforhodamine B assay relative to control; settings: MOLT-4, 48 h, read-out: Activity
[31] = tested on: DU-145; experiment: Cytotoxicity against human DU145 cells assessed as growth inhibition after 48 hrs by sulforhodamine B assay; settings: DU-145, 48 h
[32] = tested on: COLO 205; experiment: Cytotoxicity against human COLO205 cells assessed as growth inhibition after 48 hrs by sulforhodamine B assay; settings: COLO 205, 48 h
[33] = tested on: ACHN; experiment: Cytotoxicity against human ACHN cells assessed as cell growth at 1 uM after 48 hrs by sulforhodamine B assay relative to control; settings: read-out: Activity
[34] = tested on: SK-MEL-2; experiment: Cytotoxicity against human SK-MEL-2 cells assessed as growth inhibition after 48 hrs by sulforhodamine B assay; settings: SK-MEL-2, 48 h

COc1cc2c(cc1OC)C(=O)/C(=C/c1cc(-c3ccc4c(c3)OCO4)n[nH]1)C2
growth at 10 µM [1]: -18% | growth at 0.01 µM [2]: 94% | growth at 0.1 µM [3]: 98% | growth at 0.01 µM [4]: 90% | growth at 1 µM [5]: 84% | growth at 0.1 µM [6]: 95% | growth at 0.1 µM [7]: 91% | GI50 [8]: 1.54 µM | TGI [8]: 3.01 µM | CC50 [8]: 5.87 µM | growth at 10 µM [9]: -9% | growth at 100 µM [10]: -38% | growth at 100 µM [11]: -95% | growth at 0.1 µM [12]: 88% | GI50 [13]: 1.71 µM | LC50 [13]: 5.72 µM | TGI [13]: 3.13 µM | GI50 [14]: 1.54 µM | LC50 (concentration killing 50% of cells) [14]: 6.62 µM | TGI [14]: 3.19 µM | growth at 0.01 µM [15]: 106% | growth at 0.1 µM [16]: 93% | growth at 100 µM [17]: -87% | growth at 10 µM [18]: -59% | growth at 10 µM [19]: -17% | GI50 [20]: 1.35 µM | LC50 (lethal concentration, 50% net cell kill) [20]: 8.96 µM | TGI [20]: 3.47 µM | growth at 10 µM [21]: -69% | growth at 0.1 µM [22]: 105% | growth at 0.1 µM [23]: 100% | growth at 0.1 µM [24]: 93% | growth at 1 µM [25]: 83% | growth at 1 µM [26]: 56% | GI50 [27]: 2.57 µM | TGI [27]: 6.97 µM | CC50 [27]: > 100 µM | growth at 1 µM [28]: 106% | growth at 100 µM [29]: -82% | growth at 10 µM [30]: -18% | GI50 [31]: 1.45 µM | TGI [31]: 2.86 µM | CC50 ([31]; read-out: LC50 (the source's name)): 5.64 µM | GI50 [32]: 1.7 µM | LC50 [32]: 5.68 µM | TGI [32]: 3.11 µM | growth at 1 µM [33]: 94%

COc1cc(-c2cc(/C=C/C(=O)c3ccc(Cl)c(Cl)c3)[nH]n2)cc(OC)c1OC
growth at 10 µM [1]: 26% | growth at 0.01 µM [2]: 95% | growth at 0.1 µM [3]: 106% | LC50 (concentration killing 50% of cells) [34]: 83.8 µM | TGI [34]: 34.1 µM | growth at 0.01 µM [4]: 105% | growth at 1 µM [5]: 92% | growth at 0.1 µM [6]: 95% | growth at 0.1 µM [7]: 95% | TGI [8]: > 100 µM | CC50 [8]: > 100 µM | growth at 10 µM [9]: 63% | growth at 100 µM [10]: -15% | growth at 100 µM [11]: 6% | growth at 0.1 µM [12]: 98% | LC50 [13]: > 100 µM | TGI [13]: 74 µM | LC50 (concentration killing 50% of cells) [14]: 54.6 µM | TGI [14]: 12.8 µM | growth at 0.01 µM [15]: 103% | growth at 0.1 µM [16]: 97% | growth at 100 µM [17]: -53% | growth at 10 µM [18]: 31% | growth at 10 µM [19]: 51% | LC50 (lethal concentration, 50% net cell kill) [20]: > 100 µM | TGI [20]: 79.6 µM | growth at 10 µM [21]: 29% | growth at 0.1 µM [22]: 100% | growth at 0.1 µM [23]: 101% | growth at 0.1 µM [24]: 95% | growth at 1 µM [25]: 92% | growth at 1 µM [26]: 87% | TGI [27]: 40.6 µM | CC50 [27]: > 100 µM | growth at 1 µM [28]: 93% | growth at 100 µM [29]: 9% | growth at 10 µM [30]: 24% | LC50 [32]: > 100 µM | TGI [32]: 15.8 µM | growth at 1 µM [33]: 101%
